Assay results: patent US12162934B2, “Gremlin-1 antagonist for the prevention and treatment of cancer” (UCB BIOPHARMA SRL, priority 2018, dated 2024)

How the values were obtained:
[1] = system: intestinal epithelial pSMAD1,5 signalling; assay: Western blot of intestinal epithelial pSMAD1,5 in treated Vil1-Grem1 animals; type: in vivo, mouse
Method: Western blotting. Isolation of colon epithelium cells was carried out by incubating a 2 cm long piece of tissue with 30 mM EDTA for 2 h with agitation at 4° C. Pelleted epithelial cells were lysed RIPA lysis buffer with the addition of protease inhibitors (Complete Mini, Roche) and phosphatase inhibitors (PhosSTOP, Roche). All lysates were quantified using the BCA assay (Thermo Scientific), […] was diluted in an appropriate amount of 4× loading dye (Invitrogen) and denatured at 95° C. for 5 minutes. Western blotting was done with the NuPAGE Gel system, (Invitrogen) according to manufacturer's protocol. Briefly, denatured lysates were loaded onto a 4-12% gel and run at 100 V for at least 2 hours. The gels were transferred onto PVDF membrane (Immobilon P, Millipore) in a semi-dry tank (120 mA for at least 2 hours) and blocked by incubating for 1 hour at room temperature in TBS containing 10% milk (Marvel). […] After further washes, the blots were incubated in ECL reagents (GE healthcare) and chemiluminescence was detected by chemiluminescence film (GE Healthcare).
Epithelial BMP activity can be measured by phosphorylation of the SMAD 1,5,8 intracellular signalling transducers.
The aberrant epithelial Grem1 expression in Vil1-Grem1 mice suppressed physiological intestinal BMP pathway activity with reduction in detected pSMAD1,5 protein levels detected by Western blot.

Vil1-Grem1 mice = assay: AOM mutagenesis in Vil1-Grem1 mice; type: in vivo, mouse; conditions: 30 mg/kg weekly antibody for three weeks before and after three 10 mg/kg weekly AOM doses
Text: Aberrant epithelial Grem1 expression in Vil1-Grem1 mice promotes an epithelial stem/progenitor cell phenotype (Davis et al., 2015), and we hypothesised that these cells would be susceptible to somatic mutation. We used azoxymethane (AOM) administration to examine the effect of a mutagenic insult on untreated Vil1-Grem1 and anti-Grem1 treated Vil1Grem1 mice. AOM is a well-documented mutagen widely utilised in murine models to recapitulate spontaneous CRC carcinogenesis (Neufert and Neurath, 2007).
Mice were treated with three subcutaneous doses of 30 mg/kg weekly anti-Grem1 antibody followed by three intraperitoneal doses of 10 mg/kg weekly azoxymethane (AOM, Sigma) or vehicle (saline) prior to a further three weeks of 30 mg/kg weekly anti-Grem1 antibody. Treatment commenced at or from the age of 90 days onwards, which is late enough in the Vil1-Grem1 disease process to ensure expansion of the progenitor cell population and subsequent formation of ectopic crypt foci.

human Gremlin = biological target: T1, human Gremlin (Homo sapiens, UniProt O60565); assay: Hek-Id1 reporter gene assay: anti-Gremlin-1 antibodies restoring BMP signalling blocked by human Gremlin; type: cell-based; conditions: 10-fold excess and 80% inhibition Gremlin-1 concentration
T1 sequence (O60565 25-184): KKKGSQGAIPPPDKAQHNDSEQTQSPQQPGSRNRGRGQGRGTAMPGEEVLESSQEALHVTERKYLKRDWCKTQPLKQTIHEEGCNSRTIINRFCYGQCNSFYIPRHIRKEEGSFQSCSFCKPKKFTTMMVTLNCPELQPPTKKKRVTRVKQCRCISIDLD
Text: The Hek Id1 reporter gene assay uses Clone 12 Hek293-Id1 reporter cells. This cell line was stably transfected with Id1 transcription factor. Id1 is a transcription factor in the BMP signalling pathway. Gremlin is known to bind BMPs prevent binding to their receptors reducing the luciferase signal from the reporter gene. Therefore, using this reporter assay, it is possible to screen anti-Gremlin antibodies and see if there are any that block the interaction of Gremlin with BMPs. A restoration of the luciferase signal is seen in these cells if there is a blocking of this interaction.
Clone 12 cells were cultured in DMEM containing 10% FCS, 1× L-Glutamine & 1× NEAA. […]
The cells were washed in PBS, lifted off using cell dissociation buffer, spun and counted before being seeded at 5×10^4/well in 70 μl (Density of 7.14×10^5/ml). […]
Post incubation, 30 μl of sample was transferred per well of assay plate and incubated for 20-24 hours before measuring luminescence signal.
Cell Steady Glo was thawed in advance at room temperature. […] Luciferase signal was detected by addition of cell steady glo reagent (100 μl) for 20 minutes on shaker at room temperature and measuring luminescence using cell titre glo protocol on Synergy 2. […]
The percentage of inhibition from dose response assays was calculated based on the maximum and minimum signals in the assay and the data fitted using 4 parameter logistical fit. […]

Ab7326: allosteric inhibitory anti-Gremlin-1 antibody from a naïve human library; CDRs SEQ ID NOS 4 to 9; mouse IgG1 in mouse experiments
Restoration of intestinal epithelial pSMAD1,5 signalling ([1]; 10 mg/kg weekly subcutaneous): not | Restoration of intestinal epithelial pSMAD1,5 signalling ([1]; 30 mg/kg weekly subcutaneous): able to restore | Increased tumour burden and reduced survival of AOM-treated animals (Vil1-Grem1 mice): partially abrogated | Blocking ability in the Hek-Id1 reporter gene assay (human Gremlin): maintained blocking ability
